# Results: patent publication US6849660B1, “Antimicrobial biaryl compounds” (ISIS Pharmaceuticals, Inc., priority 2000, dated 2005)
# Read-outs that look alike come from different tables or passages of the source.
# Experiments:
# [1] = tested on: E. coli S30 bacterial extract; test: Coupled bacterial transcription/translation assay (luciferase reporter); type: biochemical
# Method: Coupled Bacterial Transcription/Translation Assay. The DNA template, pBestLuc™ (Promega), is a plasmid containing a reporter gene for firefly luciferase fused to a strong tac promoter and ribosome binding site. Messenger RNA from 1 μg pBestLuc was transcribed and translated in E. coli S30 bacterial extract in the presence or absence of test compound. Compounds were tested in a black 96 well microtiter plate with an assay volume of 35 μL. Each test well contained: 5 μL test compound, 13 μL S30 premix (Promega), 4 μL 10× complete amino acid mix (1 mM each), 5 μL E. coli S30 extract and 8 μL of 0.125 μg/μL pBestLuc™. The transcription/translation reaction was incubated for 35 minutes at 37° C. followed by detection of functional luciferase with the addition of 30 μL LucLite™ (Packard). Light output was quantitated on a Packard TopCount.
# S. pyogenes = test: Minimum inhibitory concentration (MIC), S. pyogenes; type: cell-based; settings: Streptococcus pyogenes
# Method: (§1) Bacterial Strains. The Streptococcus pyogenes strains, Klebsiella pneumoniae, Escherichia coli, Staphylococcus aureus, Enterococcus faecalis used in the antibacterial activity studies ATCC 14289, 49399, 13883, 25922, 13709, 29212, respectively, are obtained from the American Type Culture Collection, Rockville, Md. The strain E. coli imp- is a mutant strain of wild type E. coli with increased outer membrane permeability and was grown in LB broth at 37 ° C. S. pyogenes strain is grown in Todd-Hewitt broth. S. aureus is grown in trypticase soy broth, E. faecalis in Todd-Hewitt broth, wild type E. coli and K. pneumoniae, in nutrient broth.
# (§2) Determination of Minimum Inhibitory Concentrations (MICs). The assays were carried out in […] volume in duplicate in 96-well clear flat-bottom plates. The bacterial suspension from an overnight culture growth in appropriate medium was added to a solution of test compound in 4% DMSO in water. Final bacterial inoculum was approximately 10^5-10^6 CFU/well. The percent growth of the bacteria in test wells relative to that observed for a well containing no compound was determined by measuring absorbance at 595 nm (A595) after 24 h. […] Both ampicillin and tetracycline is used as antibiotic-positive controls in each screening assay for S. pyogenes, E. coli imp-, E. coli, S. aureus, E. faecalis, K pneumoniae and P. vulgaris. Ciprofloxacin is used as an antibiotic positive control in each screening assay for P. aeruginosa.
# S. aureus = test: Minimum inhibitory concentration (MIC), S. aureus; type: cell-based; settings: Staphylococcus aureus, Table 6
# Method: as §1
# as §2, with “Ciprofloxacin is used as an antibiotic positive control in each screening assay for P. aeruginosa.” left out
# E. hirae = test: Minimum inhibitory concentration (MIC), E. hirae; type: cell-based; settings: Enterococcus hirae, Table 6
# Method: as §2
# E. coli = test: Minimum inhibitory concentration (MIC), E. coli; type: cell-based; settings: Escherichia coli, Table 6
# Method: as §1
# as §2, with “Ciprofloxacin is used as an antibiotic positive control in each screening assay for P. aeruginosa.” left out
# K. pneumoniae = test: Minimum inhibitory concentration (MIC), K. pneumoniae; type: cell-based; settings: Klebsiella pneumoniae, Table 6
# Method: as §1
# as §2, with “Ciprofloxacin is used as an antibiotic positive control in each screening assay for P. aeruginosa.” left out
# [2] = tested on: 58 nucleotide fragment of E. coli 23S ribosomal RNA (23S rRNA); test: Mass-spec binding assay (ESI-FTICR-MS); settings: Table 5, amino acid spacer compounds; read-out: approx. Kd
# Method: Binding affinity of test compounds to a 58 nucleotide fragment of E. coli 23S ribosomal RNA (23S rRNA) was determined using electrospray ionization Fourier transform ion cyclotron resonance mass spectrometry (ESI-FTICR-MS). The structure of the 23S rRNA fragment and its preparation is described by Conn et al (Science, 1999, 284(5417):1171) and Hinck et al (J. Mol. Biol., 1997, 274(1): 101) both incorporated herein by reference. The mass spec assay determined the exact chemical composition of ligands that bound to the target rRNA and determined relative or absolute dissociation (KD) of ligands for the target. In the first step of the assay, a mixture of 23S rRNA target and test compound were moved from solution into the gas phase by electrospray ionization. The FT-ICR mass spectrometer served as a parallel set of “scales”, simultaneously measuring the exact molecular masses of the small molecules that bound to the RNA with great accuracy. The mass measurement error for an RNA-ligand complex weighing 10 kDa equals the mass of an electron. At this level of mass accuracy, each compound in the mixture was “labeled” by its molecular formula and exact molecular mass. […]
# [3] = S. pyogenes, Table 6, read-out: MIC
# [4] = Table 5, amino acid spacer compounds
smiles,measurement,setting,value
O=C(Nc1cccc(-c2ccc(C(=O)N3CCNCC3)o2)c1)c1ccc2[nH]c(=O)c(=O)[nH]c2c1,IC50,"[1]; Table 4, heteroaryl compounds",25 µM
O=C(Nc1cccc(-c2nc(C(=O)N3CCNCC3)cs2)c1)c1ccc2[nH]c(=O)c(=O)[nH]c2c1,IC50,"[1]; Table 4, heteroaryl compounds",75 µM
O=C(Nc1cccc(-c2ccc(S(=O)(=O)N3CCNCC3)s2)c1)c1ccc2[nH]c(=O)c(=O)[nH]c2c1,IC50,"[1]; Table 4, heteroaryl compounds",35 µM
O=c1[nH]c2ccc(S(=O)(=O)Nc3cccc(-c4ccc(CN5CCNCC5)s4)c3)cc2[nH]c1=O,IC50,"[1]; Table 4, heteroaryl compounds",80 µM
O=C(c1ccc(-c2cccc(NS(=O)(=O)c3ccc4[nH]c(=O)c(=O)[nH]c4c3)c2)s1)N1CCNCC1,IC50,"[1]; Table 4, heteroaryl compounds",80 µM
O=C(Nc1ccc(-c2ccc(CN3CCNCC3)s2)cc1)c1ccc2[nH]c(=O)c(=O)[nH]c2c1,IC50,"[1]; Table 4, heteroaryl compounds",55 µM
O=C(CNC(=O)c1ccc2[nH]c(=O)c(=O)[nH]c2c1)Nc1cccc(-c2ccc(C(=O)N3CCNCC3)s2)c1,IC50,"[1]; Table 4, heteroaryl compounds",100 µM
O=C(Nc1ccc(-c2ccc(C(=O)N3CCNCC3)s2)cc1)c1ccc2[nH]c(=O)c(=O)[nH]c2c1,IC50,"[1]; Table 4, heteroaryl compounds",50 µM
O=C(Nc1ccc(-c2ccc(C(=O)Nc3ccc(C(=O)N4CCNCC4)cc3)s2)cc1)c1ccc2[nH]c(=O)c(=O)[nH]c2c1,IC50,"[1]; Table 4, heteroaryl compounds",30 µM
O=C(Nc1cccc(-c2ccc(C(=O)N3CCC[C@H]3C(=O)N3CCNCC3)s2)c1)c1ccc2[nH]c(=O)c(=O)[nH]c2c1,IC50,"[1]; Table 4, heteroaryl compounds",25 µM
CCn1cc(C(=O)Nc2cccc(-c3ccc(C(=O)N4CCNCC4)s3)c2)c(=O)c2ccc(C)nc21,MIC,S. pyogenes; [3],25 to 50 µM
same,MIC,S. aureus,50 to 100 µM
same,MIC,E. hirae,50 to 100 µM
same,MIC,E. coli,50 to 100 µM
same,MIC,K. pneumoniae,50 to 100 µM
NCCC(NC(=O)c1ccc(-c2cccc(NC(=O)c3ccc4[nH]c(=O)c(=O)[nH]c4c3)c2)s1)C(=O)N1CCNCC1 (centres unmarked),MIC,S. pyogenes,50 to 100 µM
CCn1cc(C(=O)Nc2ccc(-c3ccc(C(=O)N4CCNCC4)s3)cc2)c(=O)c2ccc(C)nc21,MIC,S. pyogenes; [3],50 to 100 µM
same,MIC,E. coli,50 to 100 µM
O=C(Nc1cccc(-c2ccc(C(=O)N3CCNCC3)s2)c1)c1ccc2[nH]c(=O)c(=O)[nH]c2c1 [Structure 1],IC50,[1]; [4],25 µM
same,Kd,[2],79 µM
O=C(Nc1cccc(-c2ccc(C(=O)NCCC(=O)N3CCNCC3)s2)c1)c1ccc2[nH]c(=O)c(=O)[nH]c2c1 [Structure 3],IC50,[1]; [4],35 µM
same,Kd,[2],139 µM
O=C(Nc1cccc(-c2ccc(C(=O)N3CCNCC3)s2)c1)c1ccc2[nH]c(=O)c(=O)[nH]c2c1 [drawing 51],IC50,"[1]; Table 4, heteroaryl compounds",25 µM
